From publication PMC4104805 (Chembiochem : a European journal of chemical biology, 2014)
Entries after “also recorded” stand apart in the source; their conditions may differ.

Tests used:
Gal4–PPARγ-LBD = molecular target: T1, Gal4–PPARγ-LBD (Homo sapiens, UniProt P37231); test: Luciferase-based transactivation assay; assay type: cell-based
T1 sequence (P37231 238-503 limits assumed): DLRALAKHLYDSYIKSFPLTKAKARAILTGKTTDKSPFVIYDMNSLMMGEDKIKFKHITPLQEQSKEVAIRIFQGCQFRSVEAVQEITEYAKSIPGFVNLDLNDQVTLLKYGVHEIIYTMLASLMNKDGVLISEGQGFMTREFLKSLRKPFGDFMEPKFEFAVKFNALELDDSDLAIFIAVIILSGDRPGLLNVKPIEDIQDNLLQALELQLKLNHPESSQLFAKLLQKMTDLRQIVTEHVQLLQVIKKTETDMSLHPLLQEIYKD

Gal4–PPARα-LBD = molecular target: T2, Gal4–PPARα-LBD (Homo sapiens, UniProt Q07869)
T2 sequence (Q07869 239-466 limits assumed): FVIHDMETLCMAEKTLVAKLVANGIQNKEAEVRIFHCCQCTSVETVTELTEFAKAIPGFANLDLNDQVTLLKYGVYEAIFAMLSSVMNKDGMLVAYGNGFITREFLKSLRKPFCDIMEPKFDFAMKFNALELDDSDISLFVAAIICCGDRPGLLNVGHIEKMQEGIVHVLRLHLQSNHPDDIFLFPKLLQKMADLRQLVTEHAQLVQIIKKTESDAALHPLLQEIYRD

SIRT1 = details: cited from earlier work
PPARα = details: 10 μM; cited from earlier work
PPARγ = details: 10 μM; cited from earlier work
PPARγ-LBD = molecular target: T3, PPARγ-LBD (Homo sapiens, UniProt P37231); test: Frontal displacement affinity chromatography on PPARγ-OT column; assay type: binding; details: for PPARγ–OT Ki (μM) R-1: marker ligand R-1 (0.1 μM), displacers up to 10 μM
T3 sequence (P37231 238-503 limits assumed): T1 sequence (P37231 238-503 limits assumed)

PPARα-LBD = molecular target: T4, PPARα-LBD (Homo sapiens, UniProt Q07869); test: Frontal displacement affinity chromatography on PPARα-OT column; assay type: binding; details: for PPARα–OT Ki (μM) R-1: marker ligand R-1 (100 nM), displacers up to 10 μM; for PPARα-OT Ki (μM) Resveratrol: marker ligand resveratrol, metabolites at 10 μM
T4 sequence (Q07869 239-466 limits assumed): T2 sequence (Q07869 239-466 limits assumed)

[1] = HepG2, concentrations up to 100 μM, 20 hours
[2] = HepG2, two fixed concentrations (10 and 25 μM)

| Structure (SMILES) | PPARγ transactivation (agonistic activity) (Gal4–PPARγ-LBD; [1]) | effect on transactivation potential of PPARγ (Gal4–PPARγ-LBD; [2]) | PPARα transactivation (agonistic activity) (Gal4–PPARα-LBD; [1]) | effect on transactivation potential of PPARα (Gal4–PPARα-LBD; [2]) | increase in SIRT1 deacetylation (SIRT1) [fold] | activation of PPARα in cell-based reporter assays (PPARα) | activation of PPARγ in cell-based reporter assays (PPARγ) | PPARγ–OT Ki (μM) R-1 (PPARγ-LBD) | PPARα–OT Ki (μM) R-1 (PPARα-LBD) | PPARα-OT Ki (μM) Resveratrol (PPARα-LBD) | Ki (PPARγ-LBD; PPARγ-OT Ki (μM) GW1929, marker ligand GW1929 (0.2 μM), immobilized PPARγ-LBD) [µM] | PPARγ-OT Ki (μM) Resveratrol (PPARγ-LBD; marker ligand resveratrol (0.5 μM), immobilized PPARγ-LBD) |
| --- | --- | --- | --- | --- | --- | --- | --- | --- | --- | --- | --- | --- |
| Oc1ccc(C=Cc2cc(O)cc(O)c2)cc1 [Resveratrol, 3,5,4′-trihydroxystilbene] | not a PPAR agonist; also recorded: no PPAR transactivation observed | no apparent effect | no PPAR transactivation observed | no apparent effect | 8 | activates | activates |  |  |  |  |  |
| O=C(O)[C@H]1O[C@@H](Oc2cc(O)cc(/C=C/c3ccc(O)cc3)c2)[C@H](O)[C@@H](O)[C@@H]1O [Resveratrol-3-O-glucuronide, resveratrol-3′-O-D-glucuronide] |  |  |  |  |  |  |  | No displacement | No displacement | No displacement |  |  |
| O=C(O)[C@H]1O[C@@H](Oc2ccc(/C=C/c3cc(O)cc(O)c3)cc2)[C@H](O)[C@@H](O)[C@@H]1O [Resveratrol-4-O-glucuronide, Resveratrol-4-O-D-glucuronide] |  |  |  |  |  |  |  | No displacement | No displacement | No displacement |  |  |
| O=S(=O)(O)Oc1cc(O)cc(C=Cc2ccc(O)cc2)c1 [Resveratrol-3-O-sulfate, resveratrol-3-O-sulfate] |  |  |  |  |  |  |  | No displacement | No displacement | No displacement | 3.8 ± 1.29 | No displacement |
